Reference: article PMC12118597 (Science Advances, 2025)
Several values for one entry are separate records, joined by “and”; a condition that tells them apart may be missing. Equal entries are not always repeated. Where two headings read alike, the source gives them in different places.

Target: SARS-CoV-2 NSP3 macrodomain (Mac1) (Severe acute respiratory syndrome coronavirus 2, UniProt P0DTD1)
Format: binding
Details: for 1-BDC: PanDDA background density correction factor; for Total number of conformations: ligand conformations modeled in the crystal structure; for 2*(1-BDC) (%): occupancy estimate from PanDDA; for Refined ligand occupancy (%): refined crystallographic occupancy
[1] = TRUE = crystal structure with ligand obtained
[2] = crystal soak 5 mM, P43 crystal form
[3] = site of Mac1 occupied in the X-ray crystal structure
[4] = crystal soak 10 mM, P43 crystal form
[5] = site of ligand in X-ray crystal structure
[6] = ligand-bound crystal structure obtained (TRUE)
[7] = site occupied in X-ray crystal structure

| SMILES | Occupancy difference (refined_occupancy - 2*(1-BDC)) | 1-BDC | X-ray crystal structure [1] | Total number of conformations | 2*(1-BDC) (%) | Refined ligand occupancy (%) | PanDDA run, overall: Hit [4] | PanDDA run, DMSO background map: 1-BDC (crystal soak 10 mM) | PanDDA run, DMSO background map: Hit (crystal soak 10 mM) | Binding site [5] | PanDDA run, overall: Modeled [4] | further results |
| --- | --- | --- | --- | --- | --- | --- | --- | --- | --- | --- | --- | --- |
| CCC1(O)CCN(c2ncnc3[nH]ccc23)C1 (centres unmarked) [AVI-612] | 0 | 0.17 | TRUE | 1 | 34 | 34 |  |  |  |  |  | PanDDA run, overall: Hit [2]: TRUE; PanDDA run, DMSO background map: 1-BDC (crystal soak 5 mM): 0.17; PanDDA run, DMSO background map: Hit (crystal soak 5 mM): TRUE; Binding site [3]: Adenosine |
| CN(C)C[C@@]1(O)CCCN(c2ncnc3[nH]ccc23)C1 [AVI-614] |  |  |  |  |  |  | TRUE | 0.17 | TRUE |  |  | PanDDA run, overall: Modeling comment (crystal soak 10 mM): Weak density, not modeled |
| O[C@@H]1CN(c2ncnc3[nH]ccc23)C[C@H]1F [AVI-616] | 0 | 0.2 | TRUE | 1 | 40 | 40 | TRUE | 0.2 | TRUE |  |  | Binding site [3]: Adenosine |
| O[C@@H]1COC[C@H]1Nc1ncnc2[nH]ccc12 [AVI-1443] |  |  |  |  |  |  |  |  |  |  |  | PanDDA run, overall: Modeling comment (crystal soak 5 mM): Weak density, not modeled; PanDDA run, overall: Hit [2]: TRUE; PanDDA run, DMSO background map: 1-BDC (crystal soak 5 mM): 0.05 and 0.04; PanDDA run, DMSO background map: Hit (crystal soak 5 mM): TRUE |
| O[C@H]1COC[C@@H]1Nc1ncnc2[nH]ccc12 [AVI-1444, (3R,4S)-4-((7H-pyrrolo[2,3-d]pyrimidin-4-yl)amino)tetrahydrofuran-3-ol] | 0 | 0.08 | TRUE | 1 | 16 | 16 | TRUE | 0.08 and 0.11 | TRUE | Adenosine |  |  |
| O=C(O)C(F)(F)F.OC1c2ccccc2CC1Nc1ncnc2[nH]ccc12 (centres unmarked) [AVI-3634] |  |  |  |  |  |  |  |  |  |  |  | PanDDA run, overall: Modeling comment (crystal soak 10 mM): TFA only |
| CCC(Nc1ncnc2[nH]ccc12)C(C)O (centres unmarked) [AVI-3635] | 0 | 0.14 | TRUE | 2 | 28 | 28 | TRUE | 0.23 and 0.14 | TRUE | Adenosine | TRUE |  |
| OCC(CC(F)(F)F)Nc1ncnc2[nH]ccc12 (centres unmarked) [AVI-3637] | 0 | 0.23 | TRUE | 1 | 46 | 46 | TRUE | 0.23 | TRUE | Adenosine |  |  |
| OCC(Nc1ncnc2[nH]ccc12)C1CCC1 (centres unmarked) [AVI-3638] | 0 | 0.13 | TRUE | 1 | 26 | 26 | TRUE | 0.13 | TRUE | Adenosine | TRUE |  |
| O=C(O)C(F)(F)F.O[C@H]1CCC[C@@H]1Nc1ncnc2[nH]ccc12 [AVI-3639] | 0 | 0.11 | TRUE | 1 | 22 | 22 | TRUE | 0.11 | TRUE | Adenosine | TRUE |  |
| OCC(CC1CCC1)Nc1ncnc2[nH]ccc12 (centres unmarked) [AVI-3641] | 0 | 0.18 | TRUE | 1 | 36 | 36 | TRUE | 0.18 | TRUE | Adenosine | TRUE |  |
| OCC(CC(O)c1ccccc1)Nc1ncnc2[nH]ccc12 (centres unmarked) [AVI-3642] | 0 | 0.17 | TRUE | 1 | 34 | 34 | TRUE | 0.17 | TRUE | Adenosine | TRUE |  |
| CCCC(CO)Nc1ncnc2[nH]ccc12 (centres unmarked) [AVI-3643] | 0 | 0.16 | TRUE | 1 | 32 | 32 | TRUE | 0.16 | TRUE | Adenosine | TRUE |  |
| C#CCC(CO)Nc1ncnc2[nH]ccc12 (centres unmarked) [AVI-3644] | 0 | 0.18 | TRUE | 1 | 36 | 36 | TRUE | 0.18 | TRUE | Adenosine | TRUE |  |
| O=C(O)C(F)(F)F.OCC(Nc1ncnc2[nH]ccc12)C1CCCO1 (centres unmarked) [AVI-3645] |  |  |  |  |  |  | TRUE | 0.22 | TRUE |  |  | PanDDA run, overall: Modeling comment [4]: Weak density, not modeled; PanDDA run, TFA/DMSO background map: 1-BDC (crystal soak 10 mM): 0.12; PanDDA run, TFA/DMSO background map: Hit (crystal soak 10 mM): TRUE |
| OC1CCCN(c2ncnc3[nH]ccc23)C1 (centres unmarked) [AVI-3646] | 0 | 0.22 | TRUE | 1 | 44 | 44 | TRUE | 0.22 | TRUE |  | TRUE | Binding site [3]: Adenosine |
| CC(C)(C)CC(CO)Nc1ncnc2[nH]ccc12 (centres unmarked) [AVI-3648] | 0 | 0.13 | TRUE | 1 | 26 | 26 | TRUE | 0.13 | TRUE | Adenosine | TRUE |  |
| OCC(Nc1ncnc2[nH]ccc12)C1CCCC1 (centres unmarked) [AVI-3649] | 0 | 0.16 | TRUE | 1 | 32 | 32 | TRUE | 0.16 | TRUE | Adenosine | TRUE |  |
| OCC(Cc1c[nH]c2ccccc12)Nc1ncnc2[nH]ccc12 (centres unmarked) [AVI-3650] | 0 | 0.15 | TRUE | 2 | 30 | 30 | TRUE | 0.15 | TRUE | Adenosine | TRUE |  |
| OC(c1ccccc1)C1CCCN1c1ncnc2[nH]ccc12 (centres unmarked) [AVI-3652] | 0 | 0.22 |  | 1 | 44 | 44 | TRUE | 0.22 | TRUE |  | TRUE | X-ray crystal structure [6]: TRUE; Binding site [7]: Adenosine |
| O=C(O)C(F)(F)F.OC[C@@H](CCc1ccccc1)Nc1ncnc2[nH]ccc12 [AVI-3654] |  |  |  |  |  |  | TRUE | 0.14 | TRUE |  |  | PanDDA run, overall: Modeling comment [4]: Weak density for phenyl, not modeled; PanDDA run, TFA/DMSO background map: 1-BDC (crystal soak 10 mM): 0.07; PanDDA run, TFA/DMSO background map: Hit (crystal soak 10 mM): TRUE |
| CC1CCN(c2ncnc3[nH]ccc23)C1CO (centres unmarked) [AVI-3655] | 0 | 0.21 |  | 1 | 42 | 42 | TRUE | 0.21 | TRUE |  | TRUE | X-ray crystal structure [6]: TRUE; Binding site [7]: Adenosine |
| CO[C@@H]1C[C@H](CO)N(c2ncnc3[nH]ccc23)C1 [AVI-3656] | 0 | 0.26 |  | 1 | 52 | 52 | TRUE | 0.26 | TRUE |  | TRUE | X-ray crystal structure [6]: TRUE; Binding site [7]: Adenosine |
